The record followed here is patent publication US20250114430A1, “MODIFIED PEPTIDOMIMETICS AND METHODS OF USE” (The University of North Carolina at Chapel Hill, priority 2021, published 2025).

For data set [1], the system named is P. aeruginosa. Description: P. aeruginosa infection in WT mice, ELD607 versus comparators. The data set is classed as in vivo. The conditions noted are these: WT mice infected with P. aeruginosa. The text has this:
We then infected WT mice with P. aeruginosa and treated with ELD607, the Orai1 small molecule antagonist […], dexamethasone or scrambled ELD607.

Data set [2] deals with P. aeruginosa. Description: P. aeruginosa growth in the presence of peptide. The data set is classed as cell-based. The conditions noted are these: in vitro.
For data set [3], the target named is Orai1 (Homo sapiens, UniProt Q96D31). Description: Dose response of Ca^2+ influx (SOCE), Ca^2+ add back approach, HEK293T cells. Further details: Endogenous Orai1/store operated Ca^2+ influx have been extensively studied in HEK293T cells; endogenous in cells; host or cells: HEK293T. The data set is classed as cell-based. The protocol:
HEK293T cells were cultured in 384 well plates. Cells were then exposed to vehicle or […] ELD607 for 1 h. 100 nM thapsigargin was then added followed by extracellular Ca^2+ to differentiate ER Ca^2+ release and SOCE. n=8-12 cultures per data point.
ELD607 requires Orai1 expression to inhibit Ca^2+ signaling. […] Using this approach, curves were fitted to the data and the 50% inhibitory concentrations (IC50S) were calculated.

The target of data set [4] is T1, human neutrophil elastase (Homo sapiens, UniProt P08246).
T1 sequence (P08246 30-267): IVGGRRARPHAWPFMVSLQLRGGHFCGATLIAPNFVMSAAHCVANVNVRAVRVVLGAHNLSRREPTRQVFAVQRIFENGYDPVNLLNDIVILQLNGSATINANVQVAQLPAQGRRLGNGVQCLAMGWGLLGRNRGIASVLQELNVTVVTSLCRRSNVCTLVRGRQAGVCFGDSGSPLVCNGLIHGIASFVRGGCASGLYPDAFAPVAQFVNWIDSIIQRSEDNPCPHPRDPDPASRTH
The data set is classed as in vitro ADME. On the procedure: Peptides were exposed to NE over time, and the reaction was stopped by addition of sivelestat. HPLC was then performed in order to determine peptide stability. N=3-4 replicates per time point.
HEK293T cells were plated and incubated for 2 hours with Fluo-4 plus or minus ELD peptides, with fluorescent images taken every 30 seconds for 2-6 minutes at excitation/emission wavelengths of 488/530 nm. […] Candidate peptides ELD604, 607, 601, and 100 were tested for resistance against protease degradation, wherein the peptides were incubated with neutrophil elastase, treated with the elastase inhibitor sivelestat at various timepoints to halt ongoing reactions, and then analyzed by HPLC (FIG. 9).
Endogenous Orai1/store operated Ca^2+ influx have been extensively studied in HEK293T cells, so this cell type was used to understand ELD607-Orai1 interactions. […] Thapsigargin is a SERCA pump inhibitor that prevents uptake of cytosolic Ca^2+ into the endoplasmic reticulum. Thapsigargin is commonly used to stimulate Orai1/store operated Ca^2+ influx. […] Dynamic light scattering (DLS) was used to evaluate binding of ELD607 to peptides of Orai1 extracellular loops. […] Thus, it was concluded that ELD607 interacts with Orai1.

Data set [5] deals with HEK293T cells. Description: Cytoplasmic Ca^2+ (Fluo-4) in HEK293T cells incubated with ELD peptides. The data set is classed as cell-based. Particulars: 2 hours with Fluo-4 plus or minus peptide.
For data set [6], the system named is SARS-CoV-2 S1 pseudovirus. The data set is classed as cell-based.

Non-standard residues stand in square brackets, D forms with d. No end group written: not given here.

Orai1, sequence (Q96D31 whole entry): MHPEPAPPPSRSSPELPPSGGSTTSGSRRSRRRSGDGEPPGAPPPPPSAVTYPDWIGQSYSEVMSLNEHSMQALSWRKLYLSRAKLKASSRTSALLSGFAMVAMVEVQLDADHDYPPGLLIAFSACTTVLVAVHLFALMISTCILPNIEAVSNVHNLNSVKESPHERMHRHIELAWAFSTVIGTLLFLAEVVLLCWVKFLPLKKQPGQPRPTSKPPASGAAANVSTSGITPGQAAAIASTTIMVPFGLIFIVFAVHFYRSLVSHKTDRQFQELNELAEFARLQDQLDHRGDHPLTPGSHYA

In the case of `Cc1nnsc1C(=O)Nc1ccc(-n2nc(C(F)(F)F)cc2C(F)(F)F)cc1` [YM-58453, reference compound], the “neutrophilia, weight loss, bacterial infections and lung macrophage levels (these parameters)” value in data set [1] is given as “neither −58453, dexamethasone nor scrambled ELD607 had any significant effects”.

Take `O=C(O)c1cn(C2CC2)c2cc(N3CCNCC3)c(F)cc2c1=O` [ciproflaxin, reference compound]: the P. aeruginosa growth result in data set [2] is reported as “fully inhibited bacterial growth”.

Take “DITLVHDIVNMLIHGL [ELD100, DITLVHDIVNMLIHGL]”: the IC50 in data set [3] (Ca^2+ influx, HEK293T, 100 nM thapsigargin, read-out: IC50 (Molar)) came to 37 nM. Moreover, the “Bottom (%)” value in data set [3] (fitted curve bottom, text: maximal inhibitions) is 57.03%. Also, the “stability against neutrophil elastase” value in data set [4] is listed as “not neutrophil elastase resistant”.

With HDINMLIHG [ELD601, HDINMLIHG], the “stability against neutrophil elastase” value in data set [4] is reported as “still degraded by elastase”.

“a-HDIVNMLIH-a ([dA]HDIVNMLIH[dA]) [ELD604]”: in data set [5], the “cytoplasmic calcium levels as compared to a control scrambled peptide” value is given as “reduced cytoplasmic calcium levels”. In addition, the “stability against neutrophil elastase” value in data set [4] is reported as “significantly more stable”. For the same compound, the “pseudovirus infection (% DsRed-positive cells)” value in data set [6] is “inhibited viral replication”.

Consider “n-VHDIVNMLIHG-n (VHDIVNMLIHG-NH2; not fully specified; also: N-terminal amidation) [ELD621]”, for which the “cytoplasmic calcium levels as compared to a control scrambled peptide” value in data set [5] is recorded as “reduced cytoplasmic calcium levels”. Besides, the “pseudovirus infection (% DsRed-positive cells)” value in data set [6] is recorded as “inhibited viral replication”.
